Experimental data: US7759373B2, “Large conductance calcium-activated K channel opener” (Mitsubishi Tanabe Pharma Corporation, priority 2001, dated 2010)

Tests used:
[1] = test system: isolated rabbit urinary bladder; assay: Relaxation effect on potassium-induced contraction of isolated rabbit urinary bladder; assay type: cell-based; settings: Oryctolagus cuniculus; 50% relaxation concentration; high-K+ (30 mM) pre-contracted rabbit bladder strips; relaxation as percentage of the maximum produced by 0.1 mM papaverine; read-out: EC50 value range
Description: Relaxation effect on potassium-induced contraction of isolated rabbit urinary bladder
Urinary bladder was isolated from Male NZW rabbits (2.0-3.5 kg) and immersed in ice-cold Krebs-bicarbonate solution (in mM: 118 NaCl, 4.7 KCl, 1.2, 2.5 CaCl2, MgSO4, 1.2 KH2PO4, 11 glucose, 25 NaHCO3). The urinary bladder was cut into longitudinal strips (5 mm length, 3-4 mm width) after mucosal layer was removed. Preparations were mounted in organ baths containing 10 ml of Krebs solution maintained at 37° C. and gassed with 95% O2/5% CO2. Accordingly, preparations were stretched with an initial tension of 2.0±1.0 g, and changes in isometric tension were measured by force-displacement transducer. The preparations were pre-contracted by changing organ-bath solution into high-K^+ (30 mM) Krebs solution (in mM: 92.7 NaCl, 30 KCl, 1.2, 2.5 CaCl2, MgSO4, 1.2 KH2PO4, 11 glucose, 25 NaHCO3).
After stable tension was obtained, compounds were added into organ baths cumulatively (10^−8M-10^−4M). The effects of compounds were expressed as a percentage of the maximum relaxation produced by 0.1 mM papaverine. 50% relaxation concentration (EC50) was calculated and EC50 value range (μM) of the compounds of the present invention was shown in the following Table 64 with a rank of A, B or C. These ranges are as mentioned below. 3≧C≧1≧B≧0.5≧A

[2] = test system: rhythmic bladder contractions induced by substance P; assay: Inhibitory effect on the rhythmic bladder contractions induced by substance P in anesthetized rats; assay type: in vivo, rat; settings: time during which frequency of rhythmic contraction was completely inhibited, 0.25 mg/kg of the compound, substance P infusion
Method in brief: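 Value is duration (min) of complete inhibition of bladder contractions, ranked A/B/C at 20 and 10 min cut-offs. Intravenous dosing (0.5% Tween 80 saline) in female SD rats under urethane, bladder saline-filled and contractions maintained by substance P infusion, 0.33 μg/kg/min.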

SMILES | EC50 [1] [nM] | 100% inhibition time range [2]
CN(C)c1ncc(-c2nc(CC(=O)O)c(-c3ccc(Cl)s3)o2)cn1 [Preparation Example 362] | 1000 to 3000 | A (A≧20>B≧10>C (minute))
O=C(O)Cc1nc(-c2ccc3ncccc3c2)oc1-c1ccc(Cl)s1 [Preparation Example 284] | 1000 to 3000 | B (A≧20>B≧10>C (minute))
O=C(O)Cc1sc(-c2ccc(F)cc2)nc1-c1ccsc1 [Preparation Example 594] | ≤ 500 | C (A≧20>B≧10>C (minute))
CSc1ccc(-c2nc(CC(=O)O)c(-c3ccc(Cl)s3)o2)cc1 [Preparation Example 281] | ≤ 500 | C (A≧20>B≧10>C (minute))
CCCc1nc(-c2cccc(F)c2)[nH]c1-c1ccccc1 [Preparation example 30] | 1000 to 3000 | B (A≧20>B≧10>C (minute))
Cc1nc(-c2ccc(F)cc2)[nH]c1-c1ccsc1 [Preparation Example 168] | 500 to 1000 | B (A≧20>B≧10>C (minute))
O=C(O)Cc1oc(-c2cc3ccccc3s2)nc1-c1ccc(Cl)s1 [Preparation Example 503] | 1000 to 3000 | A (A≧20>B≧10>C (minute))
O=C(O)Cc1nc(-c2ccc(F)cc2)oc1-c1ccc(Br)s1 [Preparation Example 256] | ≤ 500 | C (A≧20>B≧10>C (minute))
CN(C)c1ccc(-c2nc(-c3ccc(Cl)cc3)c(CC(=O)O)s2)cn1 [Preparation Example 576] | 500 to 1000 | A (A≧20>B≧10>C (minute))
CSc1ccc(-c2nc(CC(=O)[O-])c(-c3cccs3)o2)cn1.[Na+] [Preparation Example 366, 2-(6-methylthiopyridin-3-yl)-5-(2-thienyl)oxazol-4-yl acetic acid sodium salt] | ≤ 500 | C (A≧20>B≧10>C (minute))
CN1CCc2cc(-c3nc(CC(=O)O)c(-c4ccc(Cl)s4)o3)ccc21 [Preparation Example 453] | 500 to 1000 | C (A≧20>B≧10>C (minute))
CC(C)c1ccc(-c2nc(CC(=O)O)c(-c3ccc(Cl)s3)o2)cc1 [Preparation Example 273] | 1000 to 3000 | C (A≧20>B≧10>C (minute))
CCc1nc(-c2ccc(F)cc2)[nH]c1-c1ncccn1 [Preparation example 50] | 1000 to 3000 | C (A≧20>B≧10>C (minute))
CN(C)c1ncc(-c2nc(CC(=O)O)c(-c3ccc(Cl)c(S)c3)o2)cn1 [Preparation Example 364] | 1000 to 3000 | B (A≧20>B≧10>C (minute))
O=C(O)Cc1nc(-c2cnc3occc3c2)oc1-c1ccc(Cl)s1 [Preparation Example 444] | 1000 to 3000 | B (A≧20>B≧10>C (minute))
CS(=O)(=O)NCCc1nc(-c2ccc(F)cc2)oc1-c1ccsc1.[Na] [Preparation Example 378, 2-(4-fluoro-phenyl)-4-methanesulfonylaminoethyl-5-(3-thienyl)oxazole sodium salt] | 1000 to 3000 | C (A≧20>B≧10>C (minute))
Cc1nc2cc(-c3nc(CC(=O)O)c(-c4ccc(Cl)s4)o3)ccc2s1 [Preparation Example 459] | 1000 to 3000 | C (A≧20>B≧10>C (minute))
CCc1nc(-c2ccc(F)cc2)[nH]c1-c1ccsc1 [Preparation Example 171] | 1000 to 3000 | B (A≧20>B≧10>C (minute))
O=C(O)/C=C/c1nc(-c2ccc(F)cc2)oc1-c1ccc(Cl)s1 [Preparation Example 626] | 1000 to 3000 | C (A≧20>B≧10>C (minute))
C[S+]([O-])Cc1nc(-c2cccc(F)c2)[nH]c1-c1ccccc1 (centres unmarked) [Preparation example 136] | 500 to 1000 | C (A≧20>B≧10>C (minute))

SMILES | EC50 [1] [nM] | 100% inhibition time range [2]
Cl.N#CCCc1[nH]c(-c2ccc(F)cc2)nc1-c1ccccc1O [Preparation Example 350, 5-(2-cyanoethyl)-2-(4-fluorophenyl)-4-(2-hydroxyphenyl)-imidazole hydrochloride] | 1000 to 3000 | B (A≧20>B≧10>C (minute))
COc1ccc(-c2nc(CC(=O)O)c(-c3ccccc3F)o2)cc1 [Preparation Example 247] | 1000 to 3000 | C (A≧20>B≧10>C (minute))
CCN(C)c1ncc(-c2nc(CC(=O)O)c(-c3ccc(Cl)s3)o2)cn1 [Preparation Example 363] | 1000 to 3000 | C (A≧20>B≧10>C (minute))
CN(C)c1ccc(-c2nc(CC(=O)O)c(-c3ccc(Cl)s3)o2)cc1 [Preparation Example 441] | 1000 to 3000 | B (A≧20>B≧10>C (minute))
CN(C)c1ncc(-c2nc(-c3ccc(Cl)s3)c(CC(=O)O)o2)cn1 [Preparation Example 512] | 500 to 1000 | B (A≧20>B≧10>C (minute))
Cc1nc(-c2ccc(F)cc2)[nH]c1-c1cccnc1 [Preparation Example 187] | 500 to 1000 | B (A≧20>B≧10>C (minute))
CCCc1nc(-c2ccc(F)cc2)[nH]c1-c1ccsc1 [Preparation Example 172] | 1000 to 3000 | C (A≧20>B≧10>C (minute))
CCOc1ccc(-c2nc(CC(=O)[O-])c(-c3ccc(Cl)s3)o2)cn1.[Na+] [Preparation Example 367, 2-(6-ethoxypyridin-3-yl)-5-(5-chlorothiophen-2-yl)oxazol-4-yl acetic acid sodium salt] | 500 to 1000 | A (A≧20>B≧10>C (minute))
CSc1ccc(-c2nc(-c3ccc(Cl)s3)c(CC(=O)O)s2)cc1 [Preparation Example 590] | ≤ 500 | B (A≧20>B≧10>C (minute))
CCCc1nc(-c2ccc(F)cc2)[nH]c1-c1ccc(F)cc1 [Preparation example 87] | 1000 to 3000 | B (A≧20>B≧10>C (minute))
CONC(=O)Cc1nc(-c2ccc(F)cc2)oc1-c1ccsc1 [Preparation Example 373, N-methoxy-[2-(4-fluorophenyl)-5-(3-thienyl)oxazol-4-yl]acetamide] | 1000 to 3000 | C (A≧20>B≧10>C (minute))
Cn1ccc2cc(-c3nc(CC(=O)O)c(-c4ccc(Cl)s4)o3)ccc21 [Preparation Example 469] | 1000 to 3000 | B (A≧20>B≧10>C (minute))
C[S+]([O-])Cc1nc(-c2ccc(F)cc2)[nH]c1-c1ccsc1 (centres unmarked) [Preparation Example 181] | 500 to 1000 | B (A≧20>B≧10>C (minute))
O=C(O)Cc1nc(-c2cc3c(s2)CCC3)oc1-c1ccc(Cl)s1 [Preparation Example 479] | ≤ 500 | C (A≧20>B≧10>C (minute))
CSc1ncc(-c2nc(CC(=O)O)c(-c3ccc(Cl)s3)o2)cn1 [Preparation Example 445] | 1000 to 3000 | A (A≧20>B≧10>C (minute))
O=C(O)Cc1nc(-c2ccc(Cl)cc2)oc1-c1ccc(Br)s1 [Preparation Example 245] | 1000 to 3000 | C (A≧20>B≧10>C (minute))
Cc1ccc(-c2nc(CC(=O)O)c(-c3cccs3)o2)s1 [Preparation Example 268] | ≤ 500 | C (A≧20>B≧10>C (minute))
O=C(O)Cc1nc(-c2nc3ccccc3s2)oc1-c1ccc(Cl)s1 [Preparation Example 446] | ≤ 500 | C (A≧20>B≧10>C (minute))
O=C(O)Cc1nc(-c2ccc3ccccc3n2)oc1-c1ccc(Cl)s1 [Preparation Example 434] | 500 to 1000 | B (A≧20>B≧10>C (minute))
O=C(O)Cc1nc(-c2cc3ccccc3s2)oc1-c1ccc(Cl)cc1 [Preparation Example 454] | 1000 to 3000 | A (A≧20>B≧10>C (minute))
